The data set can be described thus: gradient 5% acetonitrile 3 min, to 50% in 2 min, to 85% in 15 min, held 3 min, 100 µL/min. The settings on record: column: Zorbax Extend-C18 2.1 x 50 mm; eluents: water / acetonitrile, 0.1% formic acid. An outline of the steps:
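Retention time was recorded from adduct peaks, which were picked computationally and each inspected manually. Pure standards ran in mixtures of ~100 molecules on HPLC coupled to a quadrupole time-of-flight mass spectrometer, in positive and negative ionization mode, through a Zorbax Extend-C18 column (2.1 × 50 mm, 1.8 μm) at 100 μL/min. Eluents were water and acetonitrile, each with 0.1% formic acid.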
In turn, `O=c1n(Cc2cccc(F)c2)nc2c(S(=O)(=O)N3CCOCC3)cccn12` returned an RP-LC retention time of 741 s. On to `Cn1cccc(C(=O)Nc2ccc(N3CCCS3(=O)=O)cc2)c1=O`, for which the RP-LC retention time turned out to be 644 s. For `CC(C)(C)C1(C)NN=C2Sc3ccccc3N21` (centres undefined) the value was 1030 s; for `O=C(Oc1cccc(Oc2ccccc2)c1)N1CCOCC1`, 889 s; for `O=C(c1cccc(F)c1)N1CCC(n2c(-c3ccco3)nc3cccnc32)C1` (centres undefined), 744 s. The result for `Cc1cc(OCC(=O)NCc2ccccc2Br)nc(N2CCCC2)n1` reads 640 s; that for `O=C(c1cnccn1)N1CCN(c2cc(-c3ccc(Cl)cc3)[nH]n2)CC1`, 722 s. Molecule `CCN(CC)C(=O)CSc1c(C(C)C)cnc2c1c(=O)n(C)c(=O)n2C` yielded an RP-LC retention time of 898 s. `O=C(NCc1ccc(C(F)(F)F)cc1)C1CCCN(c2cn[nH]c(=O)c2)C1` (centres undefined) registered an RP-LC retention time of 712 s.

For the molecule `CC(C(=O)OC1CC2CCC(C1)N2C)c1ccc(Br)cc1` (centres undefined), the RP-LC retention time worked out at 785 s. Consider `CNC(=O)N1CCCN(C)c2ccccc21`, for which the RP-LC retention time was determined as 484 s. The result for `CCCn1nc2n(c1=O)CCN(Cc1cn[nH]c1-c1cc(OC)ccc1OC)C2` reads 616 s; that for `CCN1CCN(S(=O)(=O)c2cc(-c3nnc(C4CC4)o3)co2)CC1`, 587 s. `CC(C(=O)Nc1cccc(F)c1)C1CCN(C(=O)Nc2ccc(Cl)cc2)CC1` (centres undefined) came in with an RP-LC retention time of 951 s. On to `CCCN1C(=O)COc2ccc(-c3noc(-c4ccccc4)n3)cc21`, for which the RP-LC retention time is 1210 s. Turning to `COc1ccc(-c2cc(C(=O)N3CCC(Cc4ccccc4)CC3)no2)cc1`, the RP-LC retention time was 1120 s. The result for `Cc1nc(-c2cc(S(=O)(=O)NCc3ccc(F)c(Cl)c3)c(C)s2)cs1` reads 1010 s; that for `Cc1noc(C)c1CC(=O)N1CCCC(c2nnc3n2CCN(C(=O)C2CC2)C3)C1` (centres undefined), 596 s; that for `O=C(c1ccc2[nH]ccc2c1)N1CCN(c2cc(-c3cccs3)[nH]n2)CC1`, 708 s. For `CCc1nc2cc(-c3noc(-c4ccc(OC)cc4)n3)ccc2o1` the value was 1180 s; for `COCCCNC(=O)C1c2cc(OC)c(OC)cc2C(=O)N(C)C1c1ccc(SC)cc1` (centres undefined), 607 s. The result for `O=C(Nc1ccc(C2(C(=O)NCc3cccc(Cl)c3)CCC2)cc1)C1CC1` reads 891 s. For `O=C(NCc1ccco1)C1CCN(C(=O)c2ncn3c2COC(c2ccccc2)C3)CC1` (centres undefined), the RP-LC retention time came to 699 s. The result for `CCCn1cnnc1C1CCCCN1C(=O)CCc1c(C)nn(C)c1C` (centres undefined) reads 589 s; that for `CN(C)C1(CC2CC2)CCN(C(=O)c2ccsc2)CC1`, 578 s. For `CCC(C)C(NC(=O)Cc1cccc(OC)c1)C(=O)Nc1nc2ccccc2[nH]1` (centres undefined) the value was 733 s; for `CC(C)c1cccc(NC(=O)Cn2cc(-c3nc(-c4cccs4)no3)ccc2=O)c1`, 962 s. As for `O=C(Nc1ccc(C(F)(F)F)cc1)N1CCCC1c1nncn1C1CCCC1` (centres undefined), the RP-LC retention time is 781 s. The result for `Cn1c(SCCC(=O)O)nnc1-c1cccnc1` reads 515 s; that for `O=C(NCCn1ccc2ccccc21)C(=O)c1cn(CC(=O)N2CCOCC2)c2ccccc12`, 871 s; that for `CCOc1ccc(-n2nc(-c3nc(-c4ccc5c(c4)OCO5)no3)c3ccccc3c2=O)cc1`, 1290 s. Consider `CCN(CC)S(=O)(=O)N1CCC(C(=O)NCCN2CCOCC2)CC1`, for which the RP-LC retention time is 579 s. With `CC1C(=O)NCCN1C(=O)CSc1ccc(Cl)cc1` (centres undefined), the RP-LC retention time is 648 s. On to `COc1ccc(-c2nc3cc(C)ccn3c2NC(=O)c2cc(Br)ccc2Cl)cc1`, for which the RP-LC retention time turned out to be 715 s.

(Values after the METLIN SMRT retention time set (Domingo-Almenara et al. 2019).)
